The target in experiment [1] is T1, Microtubule-associated protein tau (Homo sapiens, UniProt P10636). The experiment is described as follows: Inhibition of tau (unknown origin) transfected in human H4 cells incubated for 20 to 24 hrs by LPECL assay. The class given is cell-based.
Experiment [2] can be described thus: Inhibition of amyloid beta 38 secretion transfected in human H4 cells incubated for 20 to 24 hrs by LPECL assay. The format is cell-based.
The target in experiment [3] is T2, Amyloid-beta precursor protein (Homo sapiens, UniProt P05067). Put plainly: Inhibition of amyloid beta 42 transfected in human H4 cells incubated for 20 to 24 hrs by LPECL assay. The class given is cell-based.
Experiment [4] addresses T1, Microtubule-associated protein tau. The experiment is described as follows: Inhibition of tau depolymerization (unknown origin) transfected in H4 cells incubated for 20 to 24 hrs by LPECL assay. The class given is cell-based.
Experiment [5] has the same target. The experiment is described as follows: Inhibition of tau aggregation (unknown origin) at 20 uM relative to control.
Experiment [6] has the same target. Put plainly: Inhibition of Tau (unknown origin) expressed in Escherichia coli BL21 (DE3) at 10 uM relative to control.
In experiment [7] the target is T2, Amyloid-beta precursor protein. The experiment is described as follows: Inhibition of amyloid beta 42 (unknown origin) expressed in Escherichia coli BL21 (DE3) at 10 uM relative to control.
Experiment [8] has the same target. Put plainly: Inhibition of amyloid beta 42 (unknown origin) at 20 uM relative to control.

Some results are limits rather than exact numbers.

T1 sequence (P10636 whole entry): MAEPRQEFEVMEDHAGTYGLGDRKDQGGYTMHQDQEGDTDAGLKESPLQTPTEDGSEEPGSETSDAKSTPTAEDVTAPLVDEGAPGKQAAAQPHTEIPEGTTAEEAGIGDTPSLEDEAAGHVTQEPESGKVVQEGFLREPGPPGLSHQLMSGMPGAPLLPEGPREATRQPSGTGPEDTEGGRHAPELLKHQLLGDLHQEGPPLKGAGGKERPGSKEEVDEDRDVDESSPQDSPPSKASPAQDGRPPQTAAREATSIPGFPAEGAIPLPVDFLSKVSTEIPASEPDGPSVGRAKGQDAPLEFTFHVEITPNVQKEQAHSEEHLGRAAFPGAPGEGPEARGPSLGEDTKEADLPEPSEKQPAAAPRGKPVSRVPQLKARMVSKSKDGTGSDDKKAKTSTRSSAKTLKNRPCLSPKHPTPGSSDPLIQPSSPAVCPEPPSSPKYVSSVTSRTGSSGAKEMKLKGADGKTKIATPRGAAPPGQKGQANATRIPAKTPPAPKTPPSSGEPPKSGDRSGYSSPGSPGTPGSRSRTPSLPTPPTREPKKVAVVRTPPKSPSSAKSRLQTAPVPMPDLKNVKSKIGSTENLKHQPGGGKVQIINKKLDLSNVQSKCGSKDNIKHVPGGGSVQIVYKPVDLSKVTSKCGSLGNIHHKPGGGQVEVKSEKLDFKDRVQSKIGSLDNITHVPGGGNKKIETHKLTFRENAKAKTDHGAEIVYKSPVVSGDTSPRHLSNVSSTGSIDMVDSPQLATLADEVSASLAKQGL
T2 sequence (P05067 whole entry): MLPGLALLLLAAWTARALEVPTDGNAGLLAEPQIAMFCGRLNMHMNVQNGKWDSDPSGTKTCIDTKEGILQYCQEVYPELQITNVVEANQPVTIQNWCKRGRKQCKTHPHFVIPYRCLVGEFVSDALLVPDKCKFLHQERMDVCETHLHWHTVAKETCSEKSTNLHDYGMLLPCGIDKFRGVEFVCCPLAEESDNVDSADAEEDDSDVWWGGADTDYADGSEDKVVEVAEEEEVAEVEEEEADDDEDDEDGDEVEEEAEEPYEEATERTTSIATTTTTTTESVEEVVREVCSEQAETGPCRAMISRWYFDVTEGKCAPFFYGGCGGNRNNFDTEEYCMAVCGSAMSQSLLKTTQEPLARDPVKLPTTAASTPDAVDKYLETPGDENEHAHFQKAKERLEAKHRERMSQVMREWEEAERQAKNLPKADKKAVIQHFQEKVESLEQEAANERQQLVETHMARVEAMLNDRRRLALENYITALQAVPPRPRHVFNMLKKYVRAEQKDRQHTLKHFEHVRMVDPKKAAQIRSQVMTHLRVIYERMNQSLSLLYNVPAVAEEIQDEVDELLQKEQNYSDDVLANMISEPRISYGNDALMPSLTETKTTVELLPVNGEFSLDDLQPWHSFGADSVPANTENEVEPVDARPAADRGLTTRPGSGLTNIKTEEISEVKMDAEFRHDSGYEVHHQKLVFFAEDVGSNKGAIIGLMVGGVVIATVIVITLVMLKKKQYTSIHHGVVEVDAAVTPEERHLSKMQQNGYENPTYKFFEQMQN

As for `COc1cc(/C=C/c2cc(/C=C/c3ccc(O)c(OC)c3)n(-c3ccc(C)cc3)n2)ccc1O`, the IC50 was 35 µM in experiment [1], 6 µM in experiment [2] and above 1000 nM in experiment [3]. Also, the DC50 in experiment [4] was above 200 µM.
In the case of `C[n+]1c2c(c(N)c3ccccc31)C(=O)/C(=C/c1cccs1)CC2`, the inhibition in experiment [5] was found to be 95.3%.
Take `COc1cc(/C=C/c2cc(/C=C/c3ccc(O)c(OC)c3)n(CCO)n2)ccc1O`: the IC50 amounted to 69 µM in experiment [1] and 13.6 µM in experiment [2]. The DC50 in experiment [4] was determined as 65 µM.
Turning to `Cc1c(OCc2ccccc2)cccc1N1CCN(CCCCCCNc2c3c(nc4ccccc24)CCCC3)CC1`, the values for the inhibition in experiment [6] and in experiment [7] were 64% and 66.9%, respectively.
In the case of `Cc1c(OCc2ccccc2)cccc1N1CCN(CCCNC2CCN(Cc3ccccc3)CC2)CC1`, the figures for the inhibition in experiment [6] and in experiment [7] were 60.2% and 55.7%, respectively.
On to `COc1cc(/C=C/c2cc(/C=C/c3ccc(O)c(OC)c3)n(-c3cccc([N+](=O)[O-])c3)n2)ccc1O`, for which the IC50 in experiment [1] was found to be 5 µM; in experiment [2] it was 8.1 µM. The compound further showed a DC50 in experiment [4] of 4 µM.
Regarding `c1ccc(Cn2ccc3c(N4CCN(CCCCNc5c6c(nc7ccccc57)CCCC6)CC4)cccc32)cc1`, the results for the inhibition in experiment [6] and in experiment [7] were 62.9% and 57.7%, respectively.
Consider `Cc1c(OCc2ccccc2)cccc1N1CCN(CCCNCc2ccccc2)CC1`, for which the values for the inhibition in experiment [6] and in experiment [7] were 64.5% and 64.9%, respectively.
With `Cc1c(OCc2ccccc2)cccc1N1CCN(CCCCCCCNc2c3c(nc4ccccc24)CCCC3)CC1`, the values for the inhibition in experiment [6] and in experiment [7] were 70.3% and 67.4%, respectively.
The corresponding values for `Cc1c(OCc2ccccc2)cccc1N1CCN(CCNC2CCN(Cc3ccccc3)CC2)CC1` are 57.3% and 54.1%.
As to `Cc1c(OCc2ccccc2)cccc1N1CCN(CCCCCCCCNc2c3c(nc4ccccc24)CCCC3)CC1`, the inhibition in experiment [6] was determined as 60.2%; in experiment [7], 66.7%.
As for `COc1cc(/C=C/c2cc(/C=C/c3ccc(O)c(OC)c3)n(-c3ccc(C(C)C)cc3)n2)ccc1O`, the values for the half-inhibitory concentration (IC50) in experiment [1], in experiment [2] and in experiment [3] were 18 µM, 4.7 µM and above 1000 nM, respectively. In addition, in experiment [4], the DC50 was found to be 190 µM.
On to `C[n+]1c2c(c(N)c3ccccc31)C(=O)/C(=C/c1ccccc1)CC2`, for which, in experiment [5], the inhibition turned out to be 71.2%.
Same read-out and setting: then `Nc1c2c(nc3ccccc13)CC/C(=C\c1ccccc1)C2=O`, with 18.7%.
On to `COc1cc(/C=C/c2cc(/C=C/c3ccc(O)c(OC)c3)[nH]n2)ccc1O` [CURCUMIN PYRAZOLE], for which the values for the IC50 in experiment [1], in experiment [2] and in experiment [3] were 34 µM, 5.2 µM and 476 nM, respectively. Moreover, the DC50 in experiment [4] stood at 17 µM.
As to `C[n+]1c2c(c(N)c3ccccc31)C(=O)/C(=C/c1cccc(Cl)c1)CC2`, the inhibition in experiment [5] is 98.3%.
`O=S(=O)(c1ccccc1)n1ccc2c(N3CCN(CCCCCCNC4CCN(Cc5ccccc5)CC4)CC3)cccc21`: the values for the inhibition in experiment [6] and in experiment [7] were 52.7% and 61.8%, respectively.
Consider `COc1cc(/C=C/c2cc(/C=C/c3ccc(O)c(OC)c3)n(-c3ccccc3)n2)ccc1O`, for which the IC50 was 103 µM in experiment [1], 6.3 µM in experiment [2] and above 1000 nM in experiment [3]. For the same compound, the DC50 in experiment [4] amounted to 73 µM.
As for `Cc1c(OCc2ccccc2)cccc1N1CCN(CCCCNC2CCN(Cc3ccccc3)CC2)CC1`, the values for the inhibition in experiment [6] and in experiment [7] were 62.8% and 62%, respectively.
Take `C[n+]1c2c(c(N)c3ccccc31)C(=O)/C(=C/c1cccc3ccccc13)CC2`: the inhibition in experiment [5] was found to be 102%.
With `Cc1c(OCc2ccccc2)cccc1N1CCN(CCCCCCNCc2ccccc2)CC1`, the inhibition in experiment [6] was found to be 64.8%; in experiment [7], 64.2%.
For `CN(C)c1ccc2nc3ccc(=[N+](C)C)cc-3sc2c1`, the inhibition in experiment [5] stood at 80.1%.
On the same count and under the same terms, to `C[n+]1c2c(c(N)c3ccccc31)C(=O)/C(=C/c1cccc(F)c1)CC2` belongs 86.3%.
Consider `COc1cc(/C=C/c2cc(/C=C/c3ccc(O)c(OC)c3)n(C)n2)ccc1O`, for which the IC50 in experiment [1] is 13 µM; in experiment [2] it was 6.3 µM. In experiment [4], this compound registered a DC50 of 8 µM.
As for `COc1cc(/C=C/c2cc(/C=C/c3ccc(O)c(OC)c3)n(-c3ccc(Cl)nn3)n2)ccc1O`, the IC50 in experiment [1] was 54 µM; in experiment [2], 3.4 µM; in experiment [3], above 1000 nM. Besides, the DC50 in experiment [4] turned out to be 46 µM.
Regarding `Cc1c(OCc2ccccc2)cccc1N1CCN(CCNc2c3c(nc4ccccc24)CCCC3)CC1`, the inhibition in experiment [6] came out at 58.6%; in experiment [7], 55.7%.
Regarding `COc1cc(/C=C/c2cc(/C=C/c3ccc(O)c(OC)c3)n(Cc3ccccc3)n2)ccc1O`, the results for the IC50 in experiment [1], in experiment [2] and in experiment [3] were 35 µM, 7.7 µM and above 1000 nM, respectively. The DC50 in experiment [4] stood at 73 µM.
For `COc1cc(/C=C/c2cc(/C=C/c3ccc(OCC(=O)OC(C)(C)C)c(OC)c3)on2)ccc1OCC(=O)OC(C)(C)C`, in that order: above 200 µM, above 40 µM, above 1000 nM and above 200 µM.
As to `COc1cc(/C=C/c2cc(/C=C/c3ccc(OCC(=O)O)c(OC)c3)on2)ccc1OCC(=O)O`, the IC50 in experiment [1] is above 200 µM; in experiment [2], above 40 µM; in experiment [3], above 1000 nM. This compound also displayed a DC50 in experiment [4] above 200 µM.
`COc1cc(/C=C/c2cc(/C=C/c3ccc(O)c(OC)c3)n(-c3cc(Cl)cc(Cl)c3)n2)ccc1O`: the IC50 was 10 µM in experiment [1] and 3.3 µM in experiment [2]. Further, the DC50 in experiment [4] is above 200 µM.
For the compound `COc1cc(/C=C/c2cc(/C=C/c3ccc(O)c(OC)c3)on2)ccc1O`, the IC50 in experiment [1] is above 200 µM; in experiment [2], 6.1 µM. Also, in experiment [4], the DC50 is above 200 µM.
Take `COc1cc(/C=C/C(=O)CC(=O)/C=C/c2ccc(O)c(OC)c2)ccc1O` [CURCUMIN]: in experiment [2], the IC50 is above 20 µM.
Turning to `C[n+]1c2c(c(N)c3ccccc31)C(=O)/C(=C/c1cccc([N+](=O)[O-])c1)CC2`, the inhibition amounted to 86.4% in experiment [8] and 98.2% in experiment [5].
On to `COc1cc(/C=C/c2cc(/C=C/c3ccc(O)c(OC)c3)n(-c3ccc([N+](=O)[O-])cc3)n2)ccc1O`, for which the IC50 is 1.2 µM in experiment [1], 3.5 µM in experiment [2] and above 1000 nM in experiment [3]. Further, the DC50 in experiment [4] came out at 1.1 µM.
On to `O=S(=O)(c1ccccc1)n1ccc2c(N3CCN(CCN4CCN(Cc5cccc6c5ccn6Cc5ccccc5)CC4)CC3)cccc21`, for which the inhibition was 54.6% in experiment [6] and 64.8% in experiment [7].

In general, IC50 refers to the point on the concentration scale where inhibition reaches its midpoint. Low readings indicate higher potency, high ones lower potency. As a reminder, the inhibition is the change of the read-out against control, counted positive when it falls.

These data come from ChEMBL document CHEMBL5149969, “Amyloid-β and tau aggregation dual-inhibitors: A synthetic and structure-activity relationship focused review” (Eur J Med Chem, 2021).
